Data taken from patent publication US20080293931A1, “Methods and compositions for the removal of nucleic acid amplification inhibitors” (priority 2006, published 2008).
Entries after “also recorded” stand apart in the source; their conditions may differ. Like-named read-outs stand apart in the source and are kept apart here.

What was measured:
[1] = Humic acid (HA) removal from aqueous commercial HA solutions by PIR compounds, fluorimetric HA determination; parameters: key to ε values: ε = −log(1 − efficiency); efficiency = ([HA]i − [HA]f)/[HA]i; conditions: for Average Efficiency, ε / Avg Reduction Factor: aqueous humic samples seeded with E. coli DNA; for performance as PIR compound (in words): commercial humic acid solutions; for ε values: 1M BRT in phosphate buffer, 19 days storage, HA avg 10,200 mg/L
Experimental: Humic solutions were in 1×TAE buffer at RT with pH˜7. […] Samples from PIR experiments utilizing these materials were diluted, using 1×TAE, to concentrations falling within the linear response region representative of the humic material used.
In this study, when samples were interrogated for humic acid concentrations via fluorimetry, known concentrations of commercial humic acids were compared to known concentrations of humic standards.
FIG. 1 compares the HA removal from samples containing DNA of interest to the molar concentration of varied PIR compounds by plotting an HA reduction factor as the initial [HA] divided by [HA] following treatment with PIR compounds. The commercially available PIR kit, from Mo-BIO, is placed on FIG. 1 for comparison and was arbitrarily assigned a molar concentration of 1 for convenience. […] The data shown in FIG. 1 were generated from varied initial [HA], ranging from ˜5,000 to 300,000 mg/L HA. These varied initial [HA] values represent a “worst case” scenario and these are in comparison to initial [HA] in extractions from problematic soils generating humic acid concentrations typically less than 5,000 mg/L.
FIG. 2 plots the data from the same experiments represented in FIG. 1, but applying a different approach for data metric. FIG. 2 plots a dimensionless HA removal efficiency (or efficacy) value versus the decade of dilution necessary for successful PCR. The efficiency of HA removal is defined in equation 1 as the initial [HA] minus the final [HA] divided by the initial [HA]. This is essentially a percent removal approach.
Efficiency=[HA]i−[HA]f/[HA]; (1)
To further discriminate efficiency values greater than 0.99, the efficiency was subtracted from the integer value of 1, and the −log was taken of 1-efficiency to generate a non-negative value indicative of HA removal efficiency with greater level of discrimination and resolution of values with high degrees of HA removal. This is described by equation 2.

E. coli DNA = assay: PCR of seeded E. coli DNA after PIR treatment of aqueous HA samples (decade of dilution necessary for successful PCR); conditions: for Typical dilution decade for PCR / range of dilutions (dilution decade for PCR): aqueous humic samples seeded with E. coli DNA; for PCR products imaged after gel electrophoresis (band intensity): aqueous HA samples seeded with E. coli DNA
Experimental: Consideration of dilution factors for successful PCR must also be reviewed. In untreated soil extracts containing DNA of interest, successful PCR of the extracted DNA may occur when the polymerase inhibitor is diluted sufficiently such that inhibition is suppressed and PCR may occur. Typical values for the dilution decade at which PCR is successful in samples containing humic materials and DNA of interest are often around decade four (1×10^4). Accordingly, a dilution factor of 10,000 would be necessary for successful PCR in a typical soil extract/sample. This magnitude of dilution may also impact PCR sensitivity for DNA/species already present at low concentrations and result in not identifying an organism that was present in the original sample extract.
Using this approach for presenting the HA removal data allows for the determination of a PIR compound's effectiveness for HA removal (ε) and compatibility for application in PCR systems via dilution data for PCR.

[2] = Solubility of PIR compounds in aqueous solution; assay type: physicochemical; conditions: for solubility: aqueous solution
seeded E. coli DNA = assay: PCR after PIR treatment of soil extracts (dilution to achieve PCR)
[3] = PIR 1 M, HAi avg 6,500-12,300 depending on compound (Table 6 c2)

1-thiazole-2-propanone bromide [BAT]
Average Efficiency, ε [1, 3]: 0.51 | Avg Reduction Factor [1, 3]: 3 | performance as PIR compound (in words) [1]: poor performance | Typical dilution decade for PCR (E. coli DNA; [3]): 4 | range of dilutions (dilution decade for PCR) (E. coli DNA; [3]): 3-4

Cc1ncc(C[n+]2csc(CCO[P@](=O)(O)OP(=O)(O)O)c2C)c(N)n1 [THI-PP, thiamine pyrophosphate]
Average Efficiency, ε ([1]; PIR 0.3 M, HAi avg 14,000): 2.57 | Avg Reduction Factor ([1]; PIR 0.3 M, HAi avg 14,000): 384 | performance as PIR compound (in words) [1]: did not perform well; also recorded: poor performance | Typical dilution decade for PCR (E. coli DNA; PIR 0.3 M, HAi avg 14,000): 0 | range of dilutions (dilution decade for PCR) (E. coli DNA; PIR 0.3 M, HAi avg 14,000): 0-3 | solubility ([2]; aqueous solutions, read-out: solubility in aqueous solutions (molar solubility)): 300 mM | solubility ([2]; starred values of column PIR, M (footnote of Table 6), read-out: maximum molar solubility): 300 mM | solubility in aqueous solutions (molar solubility) ([2]; aqueous solutions): ~300 mM

Bromothiazole [BRT]
ε values ([1]; 4 C., dark): 1.99 | ε values ([1]; 25 C., dark): 2.45 | ε values ([1]; 25 C., light): 2.18 | ε values ([1]; −20 C., dark): 1.36 | increase of PIR ability (HA reduction factor) on day 19 versus day zero ([1]; 1M BRT stored at room temperature, ambient lighting): ~3 factor | increase of PIR ability (HA reduction factor) on day 19 ([1]; 1M BRT stored at room temperature, kept in the dark): greater than 2 factor | Average Efficiency, ε [1, 3]: 2.21 | Avg Reduction Factor [1, 3]: 199 | Decade of dilution (E. coli DNA; 1M BRT in phosphate buffer, 19 days storage, 4 C., dark, HA avg 10,200 mg/L): 0 | Decade of dilution (E. coli DNA; 1M BRT in phosphate buffer, 19 days storage, 25 C., dark, HA avg 10,200 mg/L): 0 | Decade of dilution (E. coli DNA; 1M BRT in phosphate buffer, 19 days storage, 25 C., light, HA avg 10,200 mg/L): 0 | Decade of dilution (E. coli DNA; 1M BRT in phosphate buffer, 19 days storage, −20 C., dark, HA avg 10,200 mg/L): 0 | Typical dilution decade for PCR (E. coli DNA; [3]): 0 | range of dilutions (dilution decade for PCR) (E. coli DNA; [3]): 0-3 | PCR products imaged after gel electrophoresis (band intensity) (E. coli DNA): weak

Cc1ncc(CO)c(CN)c1O [PDA, Pyridoxamine]
Decade of dilution (E. coli DNA; 1M PDA in phosphate buffer, 30 days storage, 4 C., dark, HA avg ~10,000 mg/L): 0 | Decade of dilution (E. coli DNA; 1M PDA in phosphate buffer, 30 days storage, 25 C., dark, HA avg ~10,000 mg/L): 0 | Decade of dilution (E. coli DNA; 1M PDA in phosphate buffer, 30 days storage, 25 C., light, HA avg ~10,000 mg/L): 0 | Decade of dilution (E. coli DNA; 1M PDA in phosphate buffer, 30 days storage, −20 C., dark, HA avg ~10,000 mg/L): 0 | Decade of dilution (E. coli DNA; 2.9M PDA in phosphate buffer, 30 days storage, 4 C., dark, HA avg ~10,000 mg/L): 0 | Decade of dilution (E. coli DNA; 2.9M PDA in phosphate buffer, 30 days storage, 25 C., dark, HA avg ~10,000 mg/L): 1 | Decade of dilution (E. coli DNA; 2.9M PDA in phosphate buffer, 30 days storage, 25 C., light, HA avg ~10,000 mg/L): 1 | Decade of dilution (E. coli DNA; 2.9M PDA in phosphate buffer, 30 days storage, −20 C., dark, HA avg ~10,000 mg/L): 0 | Decade of dilution (E. coli DNA; 2.9M PDA solutions freshly prepared (Day 0)): 0 | Typical dilution decade for PCR (E. coli DNA; [3]): 1 | range of dilutions (dilution decade for PCR) (E. coli DNA; [3]): 0-2 | PCR products imaged after gel electrophoresis (band intensity) (E. coli DNA): often low and weak | dilution decade at which PCR is achieved, on average (seeded E. coli DNA; 100 mM PIR, soil extracts (Los Alamos Airport Soil)): 1.0 | PCR products following gel electrophoresis (band intensity) (seeded E. coli DNA; PIR treated soil samples): typically weak
